Like-named read-outs stand apart in the source and are kept apart here.

A short description of data set [1]: Water solubility. It counts as physicochemical.
Data set [2] can be described thus: Therapeutic index. Conditions: in vivo.
For data set [3] the following is noted: earlier disclosed activity (US Patent No. 4 148 888); cited from earlier work.
Data set [4] can be described thus: Antipyretic activity. Particulars: in vivo.
Data set [5] concerns carrageenan pleurisy (3 hr. exudate volume). The data set can be described thus: Carrageenan Pleurisy Assay (CPA), local (intra-pleural) anti-inflammatory activity. Conditions: read-out: ED50 3 hr. vol. local (intra-pleural). It counts as in vivo. The source says:
Following the procedure described by Vinegar et al. /Eur. J. Rheum. […] There were 5 animals in each drug-treated group and the control group.

Data set [6] concerns adjuvant arthritis. The data set can be described thus: Adjuvant arthritis, developing and established, arthritic joint scores. It counts as in vivo. Particulars: Rattus norvegicus, rats; for ED25: feed or water, 1008 h, drug in diet from day 21 to 42; for ED50: po, 384 h, drug in diet from day 1 to day 16. The procedure:
The effect of 3-deazaadenosine in rats againt both developing and established adjuvant arthritis was determined by the method described by R. Vinegar et al. Journal of Immunopharmacology. 1, 483, (I979). The scoring procedure of A.L.F. Currey and M. Ziff, J. Exp. Med., 121, 185 (1968) was used to assess the arthritic joint scores of rats. There were 5 animals in each drug-treated group. For developing adjuvant arthritis the drugs were administered in the diet from day 1 to day 16. For established adjuvant arthritis the drugs were administered from day 21 to 42.

The test system of data set [7] is liver. The data set can be described thus: Liver damage in animal models. It counts as in vivo. Conditions: animal models used.
The subject of data set [8] is cyclooxygenase. The data set can be described thus: Prostaglandin metabolism in vitro, cyclooxygenase pathway. Format: biochemical.
The subject of data set [9] is carrageenan pleurisy (3 hour pleural exudate volume). The data set is described as follows: Carrageenan Pleurisy Assay (CPA), acute anti-inflammatory activity, oral dosing. Conditions: for ED50: po, dose reducing the 3 hour exudate volume by 50%, p.o., 5 animals per group, read-out: ED50 3 hr. vol. p.o. It counts as in vivo. As to the method:
Following the procedure previously described by Vinegar et al. in Proc. Soc. Exp. Biol. Med., 143, 711, (1973) as recently modified /Vinegar et al., Eur. J. Rheum. Inflamm., 1, 204 (1978)/ the acute anti-inflammatory activity of 3-deazaadenosine was compared with that of known anti-inflammatory drugs. The average 3 hour exudate volume for each drug treated group was determined and the % inhibition relative to solvent-fed control animals calculated, the ED 50 (mg/kg body weight) being the dose required to reduce the 3 hour exudate volume by 50%. There were 5 animals in each drug-treated group and the control group.
By means of the Carrageenan Pleurisy Assay of Example 1 the duration of action of the tests compounds after a single oral pretreating dose was determined. For 3-deazaadenosine the effect lasted for 14.9 hours at 6 mg/kg (p.o.) whilst for aspirin (150 mg/kg p.o.) and acetaminophen (220 mg/kg p.o.) the effect lasted for […] and 2 hours respectively. This value represents the time (hours) of drug administration prior to the injection of carrageenan in which the inhibition of the 3 hour pleural exudate volume declined to 40%.

Data set [10] can be described thus: Half life. Particulars: in vivo.
In data set [11] the test system is lipoxygenase. The data set is described as follows: Prostaglandin metabolism in vitro, lipoxygenase pathway. Format: biochemical.
The nature of data set [12]: Analgesic activity. It counts as in vivo. Particulars: per se.
Data set [13] relates to immune response. Particulars: earlier disclosed activity (UK Patent Application No. 40447/78); cited from earlier work.

Regarding `Nc1nccc2c1ncn2[C@@H]1O[C@H](CO)[C@@H](O)[C@H]1O` [3-Deazaadenosine, 4-amino-1-β-D-ribofuranosyl-1H-imidazo-[4,5-c]-pyridine], the water solubility result in data set [1] is recorded as “high water solubility”. In [2], the therapeutic index result is given as “high therapeutic index”. Besides, the “dose required for antiviral activity” value in [3] is on record as 100-200 mg/kg per day. Moreover, in data set [4], the antipyretic activity entry was “not antipyretic”. Moreover, the ED50 in [5] (local (intra-pleural) administration, 5 animals per group) stood at 0.05 mg/kg; in [6] it was 8 ± 2.8 mg/kg; in [9] it was 2.8 ± 0.65 mg/kg. In [6], the ED25 was approximately 18 mg/kg/day. The liver damage entry in [7] is recorded as “does not cause liver damage”. The “inhibition of prostaglandin metabolism, cyclooxygenase pathway” value in data set [8] was “does not inhibit”. Moreover, the duration of action result was “about 15 hours” in [9] (general statement in the description, no dose given) and 14.9 h in data set [9] (single oral pretreating dose 6 mg/kg (p.o.), time before carrageenan at which inhibition of 3 hour pleural exudate volume declined to 40%). For the same molecule, the half life result in [10] is “short half life”. Also, the “inhibition of prostaglandin metabolism, lipoxygenase pathway” value in [11] was “does not inhibit”. Moreover, the analgesic activity result in data set [12] is recorded as “no analgesic activity”. The “dose required for immunesuppression” value in data set [13] is “more than 30 mg/kg”.

In the case of `CC(=O)Oc1ccccc1C(=O)O` [Aspirin], the results for the ED50 in [5], in [6] and in data set [9] were 0.04 mg/kg, 150 ± 53.1 mg/kg and 28 ± 3.2 mg/kg, respectively. In data set [6], the ED25 came to 150 mg/kg/day. Also, in data set [9] (single oral pretreating dose 150 mg/kg p.o., time before carrageenan at which inhibition of 3 hour pleural exudate volume declined to 40%), the duration of action is 35 h.

In the case of `C[C@]12CCC(=O)C=C1CC[C@@H]1[C@@H]2[C@@H](O)C[C@@]2(C)[C@H]1CC[C@]2(O)C(=O)CO` [Hydrocortisone], the figures for the ED50 in [5] and in data set [9] were 0.1 mg/kg and 14 ± 10.2 mg/kg, respectively.

In the case of `C[C@]12C=CC(=O)C=C1CC[C@@H]1[C@@H]2[C@@H](O)C[C@@]2(C)[C@H]1CC[C@]2(O)C(=O)CO` [Prednisolone], in data set [6], the ED25 was 0.2 mg/kg/day and the ED50 turned out to be 1 ± 0.7 mg/kg. Also, in [9], the ED50 came to 3 ± 0.5 mg/kg.

On to `CC(=O)Nc1ccc(O)cc1` [acetaminophen], for which the duration of action in data set [9] (single oral pretreating dose 220 mg/kg p.o., time before carrageenan at which inhibition of 3 hour pleural exudate volume declined to 40%) came out at 2 h.

The record behind these values is patent EP0038567A1, “Deazapurine nucleoside, formulations thereof, and use thereof in therapy” (THE WELLCOME FOUNDATION LIMITED, priority 1980, dated 1981).
